# Source: ChEMBL document CHEMBL1131178, “Novel disaccharide inhibitors of human glioma cell division” (1998)
# System: C6
# Experiment: Inhibitory activity against rat C6 Glioma cells stimulated with Fetal bovine serum; Not detectable
# Format: functional, cell-based
row,SMILES,ID50
1,CCCCCCCCO[C@H]1O[C@@H](CO)[C@@H](OCC(CO)(CO)COS(=O)(=O)O)[C@H](O[C@@H]2OC(C)[C@@H](O)[C@H](O)[C@@H]2O)[C@@H]1NC(C)=O (some centres undefined),Not detectable
2,CCCCCCCCO[C@H]1O[C@@H](COCC(CO)(CO)COS(=O)(=O)O)C(O)[C@H](O[C@@H]2O[C@@H](C)[C@@H](O)[C@H](O)[C@@H]2O)[C@@H]1NC(C)=O (some centres undefined),Not detectable
3,CCCCCCCCOC1OC(COCC(CO)(CO)CO)C(O)C(OC2OC(C)C(O)C(O)C2O)C1NC(C)=O (centres undefined),Not detectable
4,CCCCCCCCO[C@H]1O[C@@H](COCC(CO)(CO)COS(=O)(=O)O)[C@@H](OCC(CO)(CO)COS(=O)(=O)O)[C@H](O[C@@H]2O[C@@H](C)[C@@H](O)[C@H](O)[C@@H]2O)[C@@H]1NC(C)=O,Not detectable
